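Protocol summary: plate cells (96-well), add compound at 5 concentrations, incubate 48 h, interpolate endpoints linearly. Definition used: TGI = concentration required for complete inhibition of growth.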
Columns and labels:
Assay in all cases: growth of human tumour cells (NCI), 48 h
NCI/ADR-RES ovarian = tested on: NCI/ADR-RES ovarian
SF-295 CNS = tested on: SF-295 CNS
MDA-MB-435 = tested on: MDA-MB-435
OVCAR-4 ovarian = tested on: OVCAR-4 ovarian
UACC-62 melanoma = tested on: UACC-62 melanoma
T-47D breast = tested on: T-47D breast
ACHN renal = tested on: ACHN renal
SK-MEL-2 melanoma = tested on: SK-MEL-2 melanoma
NCI-H460 lung = tested on: NCI-H460 lung
MCF7 breast = tested on: MCF7 breast
HCT-15 colon = tested on: HCT-15 colon
OVCAR-5 ovarian = tested on: OVCAR-5 ovarian
LOX IMVI melanoma = tested on: LOX IMVI melanoma
786-0 renal = tested on: 786-0 renal
A549 NSCLC = tested on: A549 NSCLC
PC-3 prostate = tested on: PC-3 prostate
NCI-H23 lung = tested on: NCI-H23 lung
EKVX NSCLC = tested on: EKVX NSCLC
HCT-116 colon = tested on: HCT-116 colon
HT29 colon = tested on: HT29 colon
HOP-62 NSCLC = tested on: HOP-62 NSCLC
COLO 205 colon = tested on: COLO 205 colon
MOLT-4 leukemia = tested on: MOLT-4 leukemia
SK-MEL-5 melanoma = tested on: SK-MEL-5 melanoma
SN12C renal = tested on: SN12C renal
MDA-N = tested on: MDA-N
TK-10 renal = tested on: TK-10 renal
MDA-MB-231 breast = tested on: MDA-MB-231 breast
M14 melanoma = tested on: M14 melanoma
MALME-3M melanoma = tested on: MALME-3M melanoma
HCC-2998 colon = tested on: HCC-2998 colon
SF-268 CNS = tested on: SF-268 CNS
UACC-257 melanoma = tested on: UACC-257 melanoma
RPMI-8226 leukemia = tested on: RPMI-8226 leukemia
DU-145 prostate = tested on: DU-145 prostate
OVCAR-3 ovarian = tested on: OVCAR-3 ovarian
SK-OV-3 ovarian = tested on: SK-OV-3 ovarian
NCI-H226 lung = tested on: NCI-H226 lung
SNB-19 CNS = tested on: SNB-19 CNS
SR leukemia = tested on: SR leukemia
HS 578T breast = tested on: HS 578T breast
CCRF-CEM leukemia = tested on: CCRF-CEM leukemia
NCI-H522 lung = tested on: NCI-H522 lung
CAKI-1 renal = tested on: CAKI-1 renal
UO-31 renal = tested on: UO-31 renal
OVCAR-8 ovarian = tested on: OVCAR-8 ovarian
SK-MEL-28 melanoma = tested on: SK-MEL-28 melanoma
SW-620 colon = tested on: SW-620 colon
HOP-92 NSCLC = tested on: HOP-92 NSCLC
A498 renal = tested on: A498 renal
SF-539 CNS = tested on: SF-539 CNS
KM12 colon = tested on: KM12 colon
IGROV1 ovarian = tested on: IGROV1 ovarian
HL-60(TB) leukemia = tested on: HL-60(TB) leukemia
RXF 393 renal = tested on: RXF 393 renal
U251 CNS = tested on: U251 CNS
BT-549 breast = tested on: BT-549 breast
SNB-75 CNS = tested on: SNB-75 CNS
K-562 leukemia = tested on: K-562 leukemia

## CC=CCOc1cc(NC(=S)OC(C)C)ccc1Cl (mixture of isomers)
NCI/ADR-RES ovarian
  TGI: 31.9 µM
SF-295 CNS
  TGI: 35.5 µM
MDA-MB-435
  TGI: 49.9 µM
OVCAR-4 ovarian
  TGI: 32.4 µM
UACC-62 melanoma
  TGI: 30.7 µM
T-47D breast
  TGI: 35.7 µM
ACHN renal
  TGI: 31.6 µM
SK-MEL-2 melanoma
  TGI: 28.6 µM
NCI-H460 lung
  TGI: 31.8 µM
MCF7 breast
  TGI: 38.2 µM
HCT-15 colon
  TGI: 33.7 µM
OVCAR-5 ovarian
  TGI: 44.5 µM
LOX IMVI melanoma
  TGI: 35.8 µM
786-0 renal
  TGI: 31.6 µM
A549 NSCLC
  TGI: 33.1 µM
PC-3 prostate
  TGI: 34.3 µM
NCI-H23 lung
  TGI: 35.1 µM
EKVX NSCLC
  TGI: 36.6 µM
HCT-116 colon
  TGI: 33.6 µM
HT29 colon
  TGI: 28.7 µM
HOP-62 NSCLC
  TGI: 45.4 µM
COLO 205 colon
  TGI: 33.3 µM
MOLT-4 leukemia
  TGI: 38.8 µM
SK-MEL-5 melanoma
  TGI: 33.1 µM
SN12C renal
  TGI: 29 µM
MDA-N
  TGI: 35.4 µM
TK-10 renal
  TGI: 29.2 µM
MDA-MB-231 breast
  TGI: 51.5 µM
M14 melanoma
  TGI: 63.3 µM
MALME-3M melanoma
  TGI: 29.6 µM
HCC-2998 colon
  TGI: 30.3 µM
SF-268 CNS
  TGI: 37.9 µM
UACC-257 melanoma
  TGI: 46.5 µM
RPMI-8226 leukemia
  TGI: > 100 µM
DU-145 prostate
  TGI: 76.9 µM
OVCAR-3 ovarian
  TGI: 38.1 µM
SK-OV-3 ovarian
  TGI: 45.8 µM
NCI-H226 lung
  TGI: 33 µM
SNB-19 CNS
  TGI: 56.6 µM
SR leukemia
  TGI: 44.6 µM
HS 578T breast
  TGI: 43.9 µM
CCRF-CEM leukemia
  TGI: 64.3 µM
NCI-H522 lung
  TGI: 28 µM
CAKI-1 renal
  TGI: 22.8 µM
UO-31 renal
  TGI: 24.7 µM
OVCAR-8 ovarian
  TGI: 33.9 µM
SK-MEL-28 melanoma
  TGI: 33.7 µM
SW-620 colon
  TGI: 35.3 µM
HOP-92 NSCLC
  TGI: 24.9 µM
A498 renal
  TGI: 30.7 µM
SF-539 CNS
  TGI: 36.1 µM
KM12 colon
  TGI: 33.4 µM
IGROV1 ovarian
  TGI: 43.2 µM
HL-60(TB) leukemia
  TGI: 55.7 µM
RXF 393 renal
  TGI: 30.8 µM
U251 CNS
  TGI: 32.8 µM
BT-549 breast
  TGI: 38.6 µM

## COc1cc(C2SC(N)=Nc3c2c(C)nn3C(=O)c2ccccc2O)ccc1O (stereo not drawn)
SNB-75 CNS
  TGI: > 10 µM
NCI/ADR-RES ovarian
  TGI: > 10 µM
SF-295 CNS
  TGI: > 10 µM
MDA-MB-435
  TGI: > 10 µM
OVCAR-4 ovarian
  TGI: > 6.37 µM
UACC-62 melanoma
  TGI: > 10 µM
T-47D breast
  TGI: > 10 µM
ACHN renal
  TGI: > 10 µM
SK-MEL-2 melanoma
  TGI: > 10 µM
NCI-H460 lung
  TGI: > 10 µM
MCF7 breast
  TGI: > 10 µM
HCT-15 colon
  TGI: > 10 µM
OVCAR-5 ovarian
  TGI: > 10 µM
LOX IMVI melanoma
  TGI: > 10 µM
786-0 renal
  TGI: > 10 µM
A549 NSCLC
  TGI: > 10 µM
PC-3 prostate
  TGI: > 10 µM
NCI-H23 lung
  TGI: > 10 µM
EKVX NSCLC
  TGI: > 10 µM
HCT-116 colon
  TGI: > 10 µM
HT29 colon
  TGI: > 10 µM
HOP-62 NSCLC
  TGI: > 10 µM
COLO 205 colon
  TGI: > 10 µM
MOLT-4 leukemia
  TGI: > 10 µM
SK-MEL-5 melanoma
  TGI: > 10 µM
SN12C renal
  TGI: > 10 µM
MDA-N
  TGI: > 10 µM
TK-10 renal
  TGI: > 10 µM
MDA-MB-231 breast
  TGI: > 10 µM
M14 melanoma
  TGI: > 10 µM
MALME-3M melanoma
  TGI: > 10 µM
HCC-2998 colon
  TGI: > 10 µM
SF-268 CNS
  TGI: > 10 µM
UACC-257 melanoma
  TGI: > 10 µM
RPMI-8226 leukemia
  TGI: > 7.78 µM
DU-145 prostate
  TGI: > 10 µM
OVCAR-3 ovarian
  TGI: > 10 µM
SK-OV-3 ovarian
  TGI: > 10 µM
NCI-H226 lung
  TGI: > 6.18 µM
SNB-19 CNS
  TGI: > 10 µM
SR leukemia
  TGI: > 2.73 µM
HS 578T breast
  TGI: > 10 µM
CCRF-CEM leukemia
  TGI: > 10 µM
NCI-H522 lung
  TGI: > 10 µM
CAKI-1 renal
  TGI: > 10 µM
K-562 leukemia
  TGI: > 3.75 µM
UO-31 renal
  TGI: > 10 µM
OVCAR-8 ovarian
  TGI: > 10 µM
SK-MEL-28 melanoma
  TGI: > 10 µM
SW-620 colon
  TGI: > 10 µM
HOP-92 NSCLC
  TGI: > 10 µM
A498 renal
  TGI: > 10 µM
SF-539 CNS
  TGI: > 2.31 µM
KM12 colon
  TGI: > 10 µM
IGROV1 ovarian
  TGI: > 3.33 µM
HL-60(TB) leukemia
  TGI: > 4.56 µM
RXF 393 renal
  TGI: > 10 µM
U251 CNS
  TGI: > 10 µM
BT-549 breast
  TGI: > 10 µM

## O=C1O[C@H]2[C@H](O)[C@@H](OC(=O)c3cc(O)c(O)c4c3[C@@H]3C1=CC(=O)C(O)(O)C3(O)O4)[C@H](OC(=O)c1cc(O)c(O)c(O)c1)O[C@@H]2CO (stereo partly drawn)
SNB-75 CNS
  TGI: > 100 µM
NCI/ADR-RES ovarian
  TGI: > 100 µM
SF-295 CNS
  TGI: > 100 µM
MDA-MB-435
  TGI: > 100 µM
OVCAR-4 ovarian
  TGI: > 100 µM
UACC-62 melanoma
  TGI: > 100 µM
T-47D breast
  TGI: > 100 µM
ACHN renal
  TGI: > 100 µM
SK-MEL-2 melanoma
  TGI: > 100 µM
NCI-H460 lung
  TGI: > 100 µM
MCF7 breast
  TGI: > 100 µM
HCT-15 colon
  TGI: > 100 µM
OVCAR-5 ovarian
  TGI: > 100 µM
LOX IMVI melanoma
  TGI: > 100 µM
786-0 renal
  TGI: > 100 µM
A549 NSCLC
  TGI: > 100 µM
PC-3 prostate
  TGI: > 100 µM
NCI-H23 lung
  TGI: > 100 µM
EKVX NSCLC
  TGI: > 100 µM
HCT-116 colon
  TGI: > 100 µM
HT29 colon
  TGI: > 100 µM
HOP-62 NSCLC
  TGI: > 100 µM
COLO 205 colon
  TGI: > 100 µM
MOLT-4 leukemia
  TGI: > 100 µM
SK-MEL-5 melanoma
  TGI: > 100 µM
SN12C renal
  TGI: > 100 µM
MDA-N
  TGI: > 100 µM
MDA-MB-231 breast
  TGI: > 100 µM
M14 melanoma
  TGI: > 100 µM
MALME-3M melanoma
  TGI: > 100 µM
HCC-2998 colon
  TGI: > 100 µM
SF-268 CNS
  TGI: > 100 µM
UACC-257 melanoma
  TGI: > 100 µM
RPMI-8226 leukemia
  TGI: > 100 µM
DU-145 prostate
  TGI: > 100 µM
OVCAR-3 ovarian
  TGI: > 100 µM
SK-OV-3 ovarian
  TGI: > 100 µM
NCI-H226 lung
  TGI: > 100 µM
SNB-19 CNS
  TGI: > 100 µM
SR leukemia
  TGI: > 100 µM
HS 578T breast
  TGI: > 100 µM
CCRF-CEM leukemia
  TGI: 46.1 µM
NCI-H522 lung
  TGI: > 100 µM
CAKI-1 renal
  TGI: > 100 µM
K-562 leukemia
  TGI: > 100 µM
UO-31 renal
  TGI: > 100 µM
OVCAR-8 ovarian
  TGI: > 100 µM
SK-MEL-28 melanoma
  TGI: > 100 µM
SW-620 colon
  TGI: > 100 µM
HOP-92 NSCLC
  TGI: > 100 µM
A498 renal
  TGI: > 100 µM
KM12 colon
  TGI: > 100 µM
IGROV1 ovarian
  TGI: > 100 µM
HL-60(TB) leukemia
  TGI: > 100 µM
RXF 393 renal
  TGI: > 100 µM
U251 CNS
  TGI: > 100 µM
BT-549 breast
  TGI: > 100 µM
